In patent US20100105021A1, “STABILISATION OF BIOLOGICAL CELL MARKERS” (THE UNIVERSITY OF NOTTINGHAM, priority 2007, published 2010):

Columns and labels:
[1] = test system: platelet activation marker CD62P; conditions: both groups where aspirin was added (healthy volunteers, patients on aspirin)
Protocol: Blood samples were obtained from (a) a group of healthy volunteers who were not being treated with aspirin, and (b) a group of patients who were on aspirin therapy. A CD62P stimulant combination of arachidonic acid and epinephrine, or arachidonic acid and epinephrine, in the presence of aspirin (as a control), were added to each blood sample for 4 minutes, followed by the stabilisation composition of the invention.

[2] = test system: platelet activation marker CD62P (P-selectin) on platelets; assay: Flow cytometric analysis of CD62P expression in diluted blood stimulated with a platelet stimulant and then fixed; type: cell-based, human; conditions: then fixed; for percentage of gated cells in P3 (% parent), CD62P: gate P3 set at 1% with IgG control, CD61-positive platelets; for median fluorescence of CD62P (P1 AND P2): whole population of CD61 positive cells, IgG control 2
Protocol: The inventors then set out to test the efficacy of the platelet stabilising composition by determining the expression levels of the platelet activation marker, CD62P (ie P-selectin), using flow cytometry.
Initially, an experiment was carried out in order to measure the level of expression of the platelet activation marker, CD62P, by flow cytometry in an IgG control sample. […] Platelets were gated in both P1 (top, centre in FIG. 1) and P2 (top, right in FIG. 1) in plots of a platelet identifier antibody, CD61-PerCP, against both side scatter (SSC) and forward scatter (FSC).
Approximately 3,000 CD61-positive platelet events were recorded. The CD61-positive cells were then drawn on a dot plot of CD62P against SSC (centre of FIG. 1). A frequency histogram of CD62P fluorescence against cell count was then used to quantify the percentage of cells from the parent population that were present in an interval gate P3 (bottom, left of FIG. 1). […] The gate was set at 1% using the appropriate IgG control sample and recorded in the statistics box (bottom right of FIG. 1). The median fluorescence of CD62P was also recorded for the whole population of CD61 positive cells (P1 AND P2).
Flow cytometric analysis was carried out to determine CD62P expression in an unstimulated sample of blood diluted with saline alone and then fixed.
Flow cytometric analysis was carried out to determine CD62P expression in a diluted sample of blood stimulated with adenosine diphosphate (ADP) and then fixed.
Flow cytometric analysis was carried out to determine CD62P expression in a diluted sample of blood stimulated with the thromboxane mimetic U46619 and then fixed.
Flow cytometric analysis was carried out to determine CD62P expression in a diluted sample of blood stimulated with thrombin receptor activating peptide (TRAP) and then fixed.

CC(=O)Oc1ccccc1C(=O)O [aspirin]
inhibition of CD62P expression [1]: completely inhibited

thrombin receptor activating peptide [TRAP]
percentage of gated cells in P3 (% parent), CD62P [2]: 97.5%
median fluorescence of CD62P (P1 AND P2) [2]: 1646

CCCCC[C@H](O)/C=C/[C@@H]1[C@@H](C/C=C\CCCC(=O)O)[C@H]2CO[C@@H]1C2 [U46619]
percentage of gated cells in P3 (% parent), CD62P [2]: 95.3%
median fluorescence of CD62P (P1 AND P2) [2]: 1191

Nc1ncnc2c1ncn2[C@@H]1O[C@H](COP(=O)(O)OP(=O)(O)O)[C@@H](O)[C@H]1O [ADP, adenosine diphosphate]
percentage of gated cells in P3 (% parent), CD62P [2]: 70.8%
median fluorescence of CD62P (P1 AND P2) [2]: 365
